In US20250051344A1, “BIFUNCTIONAL SELECTIVE DEGRADERS OF SMARCA2 AND THERAPEUTIC USES THEREOF” (Nurix Therapeutics, Inc., priority 2023, published 2025):

Columns and labels:
SMARCA2 = target: T1, SMARCA2 (Homo sapiens, UniProt P51531); test: SMARCA2 Cellular Degradation Assay (Western blot analysis on Jess platform); type: cell-based; conditions: for DC50 / Dmax: cellular degradation; for Fold Selectivity SMARCA4/2: ratio DC50 SMARCA4 / DC50 SMARCA2
T1 construct: endogenous in cells
Outline: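 Tumor-derived cell pellets (5×10E5-1×10E6 live cells) lysed in RIPA + 0.2% SDS, phosphatase/protease inhibitors, benzonase; 5 μg protein/capillary on Jess; chemiluminescence/fluorescence immunoassay; SMARCA2/actin peak area, % of vehicle.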

SMARCA4 = target: T2, SMARCA4 (Homo sapiens, UniProt P51532); test: Cellular degradation assay, SMARCA4 (Table 1); type: cell-based
T2 construct: endogenous in cells
T2 sequence (P51532 whole entry, species assumed): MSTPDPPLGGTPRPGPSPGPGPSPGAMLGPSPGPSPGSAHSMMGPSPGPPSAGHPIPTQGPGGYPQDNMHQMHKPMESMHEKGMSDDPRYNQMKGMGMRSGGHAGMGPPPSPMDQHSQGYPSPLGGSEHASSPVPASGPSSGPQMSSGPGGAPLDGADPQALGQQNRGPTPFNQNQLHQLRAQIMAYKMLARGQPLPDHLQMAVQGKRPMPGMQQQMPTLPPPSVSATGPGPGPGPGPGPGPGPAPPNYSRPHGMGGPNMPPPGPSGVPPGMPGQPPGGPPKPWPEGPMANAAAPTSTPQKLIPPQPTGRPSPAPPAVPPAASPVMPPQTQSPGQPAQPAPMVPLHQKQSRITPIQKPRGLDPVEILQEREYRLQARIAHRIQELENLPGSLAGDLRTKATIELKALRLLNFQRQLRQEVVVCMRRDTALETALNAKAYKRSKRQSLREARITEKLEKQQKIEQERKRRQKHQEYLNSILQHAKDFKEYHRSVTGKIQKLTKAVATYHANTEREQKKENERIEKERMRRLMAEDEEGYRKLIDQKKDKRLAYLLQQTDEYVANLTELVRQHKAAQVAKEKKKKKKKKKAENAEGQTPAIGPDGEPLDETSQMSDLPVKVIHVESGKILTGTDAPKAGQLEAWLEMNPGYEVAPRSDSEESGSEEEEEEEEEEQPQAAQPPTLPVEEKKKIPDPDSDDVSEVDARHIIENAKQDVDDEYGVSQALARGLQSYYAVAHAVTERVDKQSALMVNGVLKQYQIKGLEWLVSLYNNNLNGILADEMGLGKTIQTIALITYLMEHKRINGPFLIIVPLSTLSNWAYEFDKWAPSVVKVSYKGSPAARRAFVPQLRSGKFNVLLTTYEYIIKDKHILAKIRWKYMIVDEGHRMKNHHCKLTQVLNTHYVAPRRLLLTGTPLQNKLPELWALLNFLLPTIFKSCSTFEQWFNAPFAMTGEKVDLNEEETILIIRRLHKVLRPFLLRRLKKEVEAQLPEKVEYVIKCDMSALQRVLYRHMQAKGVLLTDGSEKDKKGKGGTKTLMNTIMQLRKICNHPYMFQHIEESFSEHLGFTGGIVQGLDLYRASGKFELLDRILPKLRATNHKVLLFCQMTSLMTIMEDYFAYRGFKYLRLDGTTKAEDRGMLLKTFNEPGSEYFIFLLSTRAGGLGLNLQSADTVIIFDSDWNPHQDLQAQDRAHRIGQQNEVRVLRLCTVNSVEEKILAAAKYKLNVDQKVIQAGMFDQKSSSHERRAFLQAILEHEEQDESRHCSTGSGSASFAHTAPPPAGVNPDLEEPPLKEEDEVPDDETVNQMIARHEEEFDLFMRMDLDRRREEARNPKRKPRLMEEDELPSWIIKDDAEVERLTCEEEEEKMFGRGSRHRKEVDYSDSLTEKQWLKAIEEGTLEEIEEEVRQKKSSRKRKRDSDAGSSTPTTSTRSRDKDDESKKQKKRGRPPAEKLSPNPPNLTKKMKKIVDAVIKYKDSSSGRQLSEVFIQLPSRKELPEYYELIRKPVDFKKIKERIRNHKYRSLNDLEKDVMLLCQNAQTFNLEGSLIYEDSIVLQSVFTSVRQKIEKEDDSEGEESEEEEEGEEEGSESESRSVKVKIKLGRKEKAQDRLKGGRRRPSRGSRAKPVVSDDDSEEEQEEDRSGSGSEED

T1 sequence (P51531 whole entry, species assumed): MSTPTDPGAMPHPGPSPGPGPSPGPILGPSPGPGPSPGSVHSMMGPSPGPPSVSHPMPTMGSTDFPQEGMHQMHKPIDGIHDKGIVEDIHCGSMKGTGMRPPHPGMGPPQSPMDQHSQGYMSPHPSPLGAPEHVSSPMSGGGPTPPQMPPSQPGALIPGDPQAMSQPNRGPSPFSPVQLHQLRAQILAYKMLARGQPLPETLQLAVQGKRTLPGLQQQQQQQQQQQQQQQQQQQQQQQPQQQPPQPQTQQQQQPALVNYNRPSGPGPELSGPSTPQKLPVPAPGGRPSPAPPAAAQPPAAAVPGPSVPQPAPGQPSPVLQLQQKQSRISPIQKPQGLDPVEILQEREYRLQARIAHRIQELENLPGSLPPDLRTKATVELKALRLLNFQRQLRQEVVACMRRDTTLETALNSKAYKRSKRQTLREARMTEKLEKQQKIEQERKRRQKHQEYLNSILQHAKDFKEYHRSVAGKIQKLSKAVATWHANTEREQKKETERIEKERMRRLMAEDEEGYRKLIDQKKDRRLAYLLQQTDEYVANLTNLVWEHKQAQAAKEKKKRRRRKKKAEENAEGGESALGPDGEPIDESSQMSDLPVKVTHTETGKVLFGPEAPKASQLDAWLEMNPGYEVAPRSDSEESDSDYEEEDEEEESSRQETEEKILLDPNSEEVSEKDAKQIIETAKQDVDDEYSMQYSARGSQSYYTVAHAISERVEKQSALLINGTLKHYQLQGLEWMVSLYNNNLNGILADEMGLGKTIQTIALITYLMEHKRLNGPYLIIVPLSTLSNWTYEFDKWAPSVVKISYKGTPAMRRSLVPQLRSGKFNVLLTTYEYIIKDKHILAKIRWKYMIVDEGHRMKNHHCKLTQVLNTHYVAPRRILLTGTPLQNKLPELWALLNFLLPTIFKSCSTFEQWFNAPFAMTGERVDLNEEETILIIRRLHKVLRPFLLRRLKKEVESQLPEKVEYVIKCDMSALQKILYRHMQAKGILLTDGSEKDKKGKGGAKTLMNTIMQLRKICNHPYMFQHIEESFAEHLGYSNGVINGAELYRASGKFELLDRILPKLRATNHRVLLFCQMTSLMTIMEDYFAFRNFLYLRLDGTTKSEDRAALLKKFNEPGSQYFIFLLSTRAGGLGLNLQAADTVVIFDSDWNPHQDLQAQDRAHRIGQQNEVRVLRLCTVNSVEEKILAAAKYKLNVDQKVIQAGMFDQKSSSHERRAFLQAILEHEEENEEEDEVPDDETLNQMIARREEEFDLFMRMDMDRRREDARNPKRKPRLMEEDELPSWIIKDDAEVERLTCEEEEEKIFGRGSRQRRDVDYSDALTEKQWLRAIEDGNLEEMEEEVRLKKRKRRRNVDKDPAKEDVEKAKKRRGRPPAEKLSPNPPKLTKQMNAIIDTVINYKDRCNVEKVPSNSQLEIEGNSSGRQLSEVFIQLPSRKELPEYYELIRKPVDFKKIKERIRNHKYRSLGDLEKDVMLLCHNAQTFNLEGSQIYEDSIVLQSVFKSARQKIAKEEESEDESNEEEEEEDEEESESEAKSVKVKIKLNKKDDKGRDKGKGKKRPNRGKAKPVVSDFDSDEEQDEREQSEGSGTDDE

Row | Structure (SMILES) | DC50 (SMARCA2) | Dmax (SMARCA2) | Fold Selectivity SMARCA4/2 (SMARCA2) | Dmax (SMARCA4) | DC50 (SMARCA4)
1 | O=C1CCC(c2c(F)cc(N3CCC(CN4CCC5(CC4)CN(C(=O)C4(Oc6ccccc6)CCN(c6cnnc(-c7ccccc7O)c6)CC4)C5)CC3)cc2F)C(=O)N1 (racemic) [Example 136, rac-(3R)-3-(2,6-difluoro-4-{4-[(2-{1-[6-(2-hydroxyphenyl)pyridazin-4-yl]-4-phenoxypiperidine-4-carbonyl}-2,7-diazaspiro[3.5]nonan-7-yl)methyl]piperidin-1-yl}phenyl)piperidine-2,6-dione] | 2.1 nM | 94% | 8 | 84.2% | 17.8 nM
2 | O=C1CCC(c2ccc(N3CCC(CN4CC5(C4)CN(C(=O)C4(c6ccccc6)CCN(c6cnnc(-c7ccccc7O)c6)CC4)C5)CC3)c(F)c2F)C(=O)N1 (racemic) [Example 138, rac-(3R)-3-(2,3-difluoro-4-{4-[(6-{1-[6-(2-hydroxyphenyl)pyridazin-4-yl]-4-phenylpiperidine-4-carbonyl}-2,6-diazaspiro[3.3]heptan-2-yl)methyl]piperidin-1-yl}phenyl)piperidine-2,6-dione] | 4.09 nM | 89% | 9 | 67.1% | 38.3 nM
3 | CN(CC1(c2ccccc2)CCN(c2cnnc(-c3ccccc3O)c2)CC1)C1CCN(C(=O)CN2CCC(c3ccc(C4CCC(=O)NC4=O)cc3)CC2)CC1 (racemic) [Example 143, rac-(r)-3-(4-(1-(2-(4-(((1-(6-(2-hydroxyphenyl)pyridazin-4-yl)-4-phenylpiperidin-4-yl)methyl)(methyl)amino)piperidin-1-yl)-2-oxoethyl)piperidin-4-yl)phenyl)piperidine-2,6-dione] | 13.3 nM | 86.5% | 12 | 66.7% | 161 nM
4 | CC(N[C@H]1CC[C@@H](NC(=O)C2(c3ccccc3)CCN(c3cnnc(-c4ccccc4O)c3)CC2)CC1)C1CCN(c2ccc([C@H]3CCC(=O)NC3=O)cn2)CC1 (mixture of isomers) [Example 147, 1-[6-(2-hydroxyphenyl)pyridazin-4-yl]-4-phenyl-N-[(1,4s)-4-{[1-(1-{5-[(3rs)-2,6-dioxopiperidin-3-yl]pyridin-2-yl}piperidin-4-yl)ethyl]amino}cyclohexyl]piperidine-4-carboxamide] | 13.7 nM | 76.8% | 3 | 64.5% | 47.3 nM
5 | O=C1CCC(c2ccc(N3C[C@H]4CN(CC(=O)N5CCC6(CC5)CN(C(=O)C5(c7ccccc7)CCN(c7cnnc(-c8ccccc8O)c7)CC5)C6)C[C@@H]4C3)cc2)C(=O)N1 (mixture of isomers) [Example 150, (3RS)-3-{4-[(3aR,6aR)-5-[2-(2-{1-[6-(2-hydroxyphenyl)pyridazin-4-yl]-4-phenylpiperidine-4-carbonyl}-2,7-diazaspiro[3.5]nonan-7-yl)-2-oxoethyl]-octahydropyrrolo[3,4-c]pyrrol-2-yl]phenyl}piperidine-2,6-dione] | 22.6 nM | 73.9% | 442 | 50.6% | –
6 | CN(C(=O)C1(c2ccccc2)CCN(c2cnnc(-c3ccccc3O)c2)CC1)C1CCN(CCC2CCN(c3ccc(C4CCC(=O)NC4=O)c(F)c3)CC2)CC1 (racemic) [Example 151, rac-N-{1-[2-(1-{4-[(3R)-2,6-dioxopiperidin-3-yl]-3-fluorophenyl}piperidin-4-yl)ethyl]piperidin-4-yl}-1-[6-(2-hydroxyphenyl)pyridazin-4-yl]-N-methyl-4-phenylpiperidine-4-carboxamide] | 3.57 nM | 92.3% | 44 | 59.6% | 157 nM
7 | O=C1CCC(c2ccc(N3CCOC4(CCN(CC(=O)N5CCC6(CC5)CN(C(=O)C5(c7ccccc7)CCN(c7cnnc(-c8ccccc8O)c7)CC5)C6)CC4)C3)cc2)C(=O)N1 (racemic) [Example 152, rac-(3R)-3-(4-{9-[2-(2-{1-[6-(2-hydroxyphenyl)pyridazin-4-yl]-4-phenylpiperidine-4-carbonyl}-2,7-diazaspiro[3.5]nonan-7-yl)-2-oxoethyl]-1-oxa-4,9-diazaspiro[5.5]undecan-4-yl}phenyl)piperidine-2,6-dione] | 68.2 nM | 66.5% | 147 | 45.4% | –

Continued by falling DC50 (SMARCA2), values first:

Row | DC50 (SMARCA2) | Dmax (SMARCA2) | Fold Selectivity SMARCA4/2 (SMARCA2) | Dmax (SMARCA4) | DC50 (SMARCA4) | Structure (SMILES)
8 | 44.4 nM | 66.3% | 225 | 44.9% | – | O=C1CCC(c2ccc(N3CCC4(CC3)CC(CN3CC5(CCN(C(=O)C6(c7ccccc7)CCN(c7cnnc(-c8ccccc8O)c7)CC6)CC5)C3)C4)cc2)C(=O)N1 (racemic) [Example 137, rac-(3R)-3-(4-{2-[(7-{1-[6-(2-hydroxyphenyl)pyridazin-4-yl]-4-phenylpiperidine-4-carbonyl}-2,7-diazaspiro[3.5]nonan-2-yl)methyl]-7-azaspiro[3.5]nonan-7-yl}phenyl)piperidine-2,6-dione]
9 | 24.5 nM | 69.9% | 3 | 60% | 84.8 nM | CN(CC1(c2ccccc2)CCN(c2cnnc(-c3ccccc3O)c2)CC1)C1CCN(C(=O)C2CCN(c3ccc(C4CCC(=O)NC4=O)cc3)CC2)CC1 (racemic) [Example 142, rac-(r)-3-(4-(4-(4-(((1-(6-(2-hydroxyphenyl)pyridazin-4-yl)-4-phenylpiperidin-4-yl)methyl)(methyl)amino)piperidine-1-carbonyl)piperidin-1-yl)phenyl)piperidine-2,6-dione]
10 | 10.3 nM | 92.2% | 5 | 86.2% | 47.5 nM | CN(C(=O)C1(c2ccccc2)CCN(c2cnnc(-c3ccccc3O)c2)CC1)C1CCN(CC2CCN(c3ccc([C@H]4CCC(=O)NC4=O)cc3)CC2)C2(CCCCC2)C1 (mixture of isomers) [Example 153, N-[(4RS)-1-[(1-{4-[(3R)-2,6-dioxopiperidin-3-yl]phenyl}piperidin-4-yl)methyl]-1-azaspiro[5.5]undecan-4-yl]-1-[6-(2-hydroxyphenyl)pyridazin-4-yl]-N-methyl-4-phenylpiperidine-4-carboxamide]
11 | 10.2 nM | 71.6% | 984 | 15% | – | O=C1CCC(c2ccc(N3CCC(CCN4CC5(C4)CN(C(=O)C4(c6ccccc6F)CCN(c6cnnc(-c7ccccc7O)c6)CC4)C5)CC3)cc2)C(=O)N1 (racemic) [Example 132, rac-(3R)-3-{4-[4-(2-{6-[4-(2-fluorophenyl)-1-[6-(2-hydroxyphenyl)pyridazin-4-yl]piperidine-4-carbonyl]-2,6-diazaspiro[3.3]heptan-2-yl}ethyl)piperidin-1-yl]phenyl}piperidine-2,6-dione]
12 | 8.79 nM | 87.1% | 1138 | 31.1% | – | CN(C(=O)C1(c2ccc(F)cc2)CCN(c2cnnc(-c3ccccc3O)c2)CC1)C1CCN(CCC2CCN(c3ccc(C4CCC(=O)NC4=O)cc3)CC2)CC1 (racemic) [Example 134, rac-N-{1-[2-(1-{4-[(3R)-2,6-dioxopiperidin-3-yl]phenyl}piperidin-4-yl)ethyl]piperidin-4-yl}-4-(4-fluorophenyl)-1-[6-(2-hydroxyphenyl)pyridazin-4-yl]-n-methylpiperidine-4-carboxamide]
13 | 6.59 nM | 87% | 5 | 71.5% | 34.9 nM | C[C@@H](C1CCN(c2ccc([C@H]3CCC(=O)NC3=O)cn2)CC1)N1CC2(CN(C(=O)C3(c4ccccc4)CCN(c4cnnc(-c5ccccc5O)c4)CC3)C2)C1 (racemic) [Example 141, (3RS&)-3-(6-{4-[(1RS)-1-(6-{1-[6-(2-hydroxyphenyl)pyridazin-4-yl]-4-phenylpiperidine-4-carbonyl}-2,6-diazaspiro[3.3]heptan-2-yl)ethyl]piperidin-1-yl}pyridin-3-yl)piperidine-2,6-dione]
14 | 5.57 nM | 83% | 4 | 72.8% | 21.9 nM | CN(CC1(c2ccccc2)CCN(c2cnnc(-c3ccccc3O)c2)CC1)C(=O)C1CCN(CCC2CCN(c3ccc([C@H]4CCC(=O)NC4=O)cc3)CC2)C2(CCC2)C1 (mixture of isomers) [Example 146, rac-5-(2-(1-(4-((r)-2,6-dioxopiperidin-3-yl)phenyl)piperidin-4-yl)ethyl)-n-((1-(6-(2-hydroxyphenyl)pyridazin-4-yl)-4-phenylpiperidin-4-yl)methyl)-n-methyl-5-azaspiro[3.5]nonane-8-carboxamide]
15 | 1.69 nM | 92.8% | 6 | 84.5% | 9.67 nM | COCCN(CC1(c2ccccc2)CCN(c2cnnc(-c3ccccc3O)c2)CC1)C(=O)C1CCN(CCC2CCN(c3ccc([C@@H]4CCC(=O)NC4=O)cc3)CC2)CC1 (racemic) [Example 145, rac-(r)-1-(2-(1-(4-(2,6-dioxopiperidin-3-yl)phenyl)piperidin-4-yl)ethyl)-n-((1-(6-(2-hydroxyphenyl)pyridazin-4-yl)-4-phenylpiperidin-4-yl)methyl)-n-(2-methoxyethyl)piperidine-4-carboxamide]
16 | 1.36 nM | 93.7% | 10 | 80.7% | 13.4 nM | O=C1CC[C@H](c2ccc(N3CCC(CCN4CC5CCC(C4)C5C(=O)NCC4(c5ccccc5)CCN(c5cnnc(-c6ccccc6O)c5)CC4)CC3)cc2)C(=O)N1 (mixture of isomers) [Example 144, rac-3-(2-(1-(4-((r)-2,6-dioxopiperidin-3-yl)phenyl)piperidin-4-yl)ethyl)-n-((1-(6-(2-hydroxyphenyl)pyridazin-4-yl)-4-phenylpiperidin-4-yl)methyl)-3-azabicyclo[3.2.1]octane-8-carboxamide]
